Assay results published in patent US9567333B2, “Triazolopyridyl compounds as aldosterone synthase inhibitors” (Merck Sharp & Dohme Corp., priority 2011, dated 2017).

Key:
human CYP11B1 = human CYP11B1 (Homo sapiens (Human), UniProt P15538); test: V79-Human-CYP11B1 cell assay; type: cell-based; conditions: V79 cells stably expressing human CYP11B1; 250 nM 11-deoxycortisol substrate; cortisol by HTRF
Description: (§1) Methods for V79-Human-CYP11B2 and V79-Human-CYP11B1 Assays: V79 cell lines stably expressing the either the human CYP11B2 or the human CYP11B1 enzyme were generated using a standard transfection protocol. V79 cells were transfected with plasmids pTriEx3-Hygro-hCyp11B2 or pTriEx3-Hygro-hCyp11B1 using Lipofectamine2000 reagent. V79 cells that stably express the human CYP11B2 or human CYP11B1 enzyme were selected for and maintained in DMEM supplemented with 10% FBS and 400 µg/mL hygromycin for ˜2 weeks. Single cell clones were generated by infinite dilution in DMEM supplemented with 10% FBS and 400 µg/mL hygromycin until single colonies were obtained. Clones V79-hCYP11B2-CLE9 and V79-hCYP11B1-8CL7, were determined to produce the most aldosterone and cortisol, respectively, and were selected for inhibitor screening. For testing of inhibitors, cells were harvested at 80% confluency with 0.05% Trypsan-EDTA, washed once in PBS, and reconstituted in DMEM+0.1% BSA media at a cell concentration of 600,000 cells/mL for the CYP11B2 assay and 280,000 cells/ml for the CYP11B1 assay. 25 μL of cells were added to a 384 well tissue culture treated plate and mixed with 0.3 μL of inhibitor or DMSO (1% final DMSO concentration) for 1 hour at 37° C., 5% CO2. After pre-incubation with inhibitor, the reaction was initiated by adding 5 μL of substrate (final concentration of 125 nM 11-deoxycorticosterone for the CYP11B2 assay or 250 nM 11-deoxycortisol for the CYP11B1 assay). The reaction was carried out for 3 hours at 37° C., 5% CO2 and was stopped by harvesting the supernatants. The amount of product in the supernatant (aldosterone for CYP11B2 assay and cortisol for the CYP11B1 assay) was measured using HTRF-based assay kit (Aldosterone HTRF-CisBio #64ALDPEB, Cortisol HTRF-CisBio #63IDC002-CORT). IC50s for the inhibitor were determined by plotting the amount of product formed against the concentration of inhibitor using sigmoidal dose-response curve (variable slope) fit in GraphPad.

human CYP11B2 = human CYP11B2 (Homo sapiens (Human), UniProt P19099); test: V79-Human-CYP11B2 cell assay; type: cell-based; conditions: V79 cells stably expressing human CYP11B2; 125 nM 11-deoxycorticosterone substrate; aldosterone by HTRF
Description: as §1

Chain of human CYP11B1 (P15538 25-503): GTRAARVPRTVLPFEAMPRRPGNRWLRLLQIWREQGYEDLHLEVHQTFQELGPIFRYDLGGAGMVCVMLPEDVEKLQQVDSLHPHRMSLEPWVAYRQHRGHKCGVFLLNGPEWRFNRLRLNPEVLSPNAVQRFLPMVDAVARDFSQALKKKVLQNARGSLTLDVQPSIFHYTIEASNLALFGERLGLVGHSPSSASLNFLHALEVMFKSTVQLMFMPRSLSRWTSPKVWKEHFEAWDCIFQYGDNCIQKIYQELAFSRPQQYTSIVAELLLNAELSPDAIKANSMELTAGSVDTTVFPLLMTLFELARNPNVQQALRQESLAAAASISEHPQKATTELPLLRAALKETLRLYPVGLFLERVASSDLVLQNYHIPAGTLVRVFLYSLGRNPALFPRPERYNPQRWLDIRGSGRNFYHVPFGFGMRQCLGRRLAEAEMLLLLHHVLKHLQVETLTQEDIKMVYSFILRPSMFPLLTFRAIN
Chain of human CYP11B2 (P19099 25-503): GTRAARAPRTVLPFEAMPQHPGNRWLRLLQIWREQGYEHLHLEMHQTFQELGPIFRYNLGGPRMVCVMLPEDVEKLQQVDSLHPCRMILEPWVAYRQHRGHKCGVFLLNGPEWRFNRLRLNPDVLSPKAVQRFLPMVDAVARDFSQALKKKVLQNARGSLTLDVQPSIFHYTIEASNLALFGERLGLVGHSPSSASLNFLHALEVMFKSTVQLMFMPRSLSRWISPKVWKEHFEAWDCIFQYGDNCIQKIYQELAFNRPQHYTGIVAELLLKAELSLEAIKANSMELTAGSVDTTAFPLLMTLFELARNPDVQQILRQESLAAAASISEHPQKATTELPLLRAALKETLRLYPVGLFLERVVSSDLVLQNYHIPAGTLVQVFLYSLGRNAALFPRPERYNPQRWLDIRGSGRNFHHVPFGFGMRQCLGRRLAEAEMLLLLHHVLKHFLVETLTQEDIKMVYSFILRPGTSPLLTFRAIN

| IC50 (human CYP11B1) | IC50 (human CYP11B2) | SMILES |
| --- | --- | --- |
| > 8330 nM | 138 nM | c1ccc2c(-c3nc4ccccn4n3)cncc2c1 [Example 5, 4-([1,2,4]triazolo[1,5-a]pyridin-2-yl)isoquinoline] |
| > 8330 nM | 171 nM | Clc1cccn2nc(-c3cncc4ccccc34)nc12 [Example 7, 4-(8-chloro-[1,2,4]triazolo[1,5-a]pyridin-2-yl)isoquinoline] |
| > 8330 nM | 1070 nM | CC(C)(O)c1cncc(-c2nc3ccc(F)cn3n2)c1 [Example 12, 2-(5-(6-fluoro-[1,2,4]triazolo[1,5-a]pyridin-2-yl)pyridin-3-yl)propan-2-ol] |
| > 8330 nM | 884 nM | Cc1cccc2nc(-c3cncc(Br)c3)nn12 [Example 13, 2-(5-bromopyridin-3-yl)-5-methyl-[1,2,4] triazolo[1,5-a]pyridine] |
| > 8330 nM | 126 nM | Fc1cc(F)c2nc(-c3cncc4ccccc34)nn2c1 [Example 18, 4-(6,8-difluoro-[1,2,4]triazolo[1,5-a]pyridin-2-yl)isoquinoline] |
| 1080 nM | 22 nM | Fc1ccn2nc(-c3cncc4ccccc34)nc2c1 [Example 20, 4-(7-fluoro-[1,2,4]triazolo[1,5-a]pyridin-2-yl)isoquinoline] |
| 2150 nM | 46 nM | Fc1ccc2nc(-c3cncc4ccccc34)nn2c1 [Example 21, 4-(6-fluoro-[1,2,4]triazolo[1,5-a]pyridin-2-yl)isoquinoline] |
